The text below walks through data of PMC4076079, “Selective inhibitors of a PAF biosynthetic enzyme lysophosphatidylcholine acyltransferase 2” (Journal of Lipid Research, 2014).

In one experiment the test system is PLA2. The experiment is described as follows: PLA2 assay. The experiment is classed as biochemical, mouse. The settings on record: 20 μM compound, soluble protein fraction of peritoneal macrophages; data not shown. As for the experimental part: PAF-AH and PLA2 activities were determined as previously described ([3]). Briefly, a soluble protein fraction of peritoneal macrophages was incubated with 20 μM of each compound at 37°C for 30 min in a total volume of 0.1 ml. For the PAF-AH assay, the reaction mixture contained 2.5 μg protein, 50 mM Tris-HCl (pH 7.4), 5 mM EDTA, 5 mM 2-mercaptoethanol, and 1 μM d4-PAF. For the PLA2 assay, 10 μg protein was incubated in buffer containing 100 mM Tris-HCl (pH 7.4), 1 mg/ml BSA, 4 mM CaCl2, 1 mM DTT, and 2 μM 16:0/20:4 alkyl-PC. A cytosolic PLA2 inhibitor, pyrrophenone (Sigma-Aldrich), was used as a positive control. The reactions were stopped with 0.27 ml of chloroform/methanol (1:2, v/v), followed by the sequential addition of an internal standard (17:0 LPC or d4-lyso-PAF), 0.11 ml chloroform, and 0.1 ml water. Lipids were extracted using the Bligh and Dyer method ([26]). The PAF-AH and PLA2 activities were measured by detecting d4-lyso-PAF and nonlabeled lyso-PAF, respectively, using LC-MS/MS.

The target of the next experiment is T1, hLPCAT2 (Homo sapiens, UniProt Q7L5N7).
T1 construct: expressed in transfected cells; host or cells: CHO-S-PAFR cells (microsomal fraction), with or without mcPAF stimulation
T1 sequence (Q7L5N7 1-544): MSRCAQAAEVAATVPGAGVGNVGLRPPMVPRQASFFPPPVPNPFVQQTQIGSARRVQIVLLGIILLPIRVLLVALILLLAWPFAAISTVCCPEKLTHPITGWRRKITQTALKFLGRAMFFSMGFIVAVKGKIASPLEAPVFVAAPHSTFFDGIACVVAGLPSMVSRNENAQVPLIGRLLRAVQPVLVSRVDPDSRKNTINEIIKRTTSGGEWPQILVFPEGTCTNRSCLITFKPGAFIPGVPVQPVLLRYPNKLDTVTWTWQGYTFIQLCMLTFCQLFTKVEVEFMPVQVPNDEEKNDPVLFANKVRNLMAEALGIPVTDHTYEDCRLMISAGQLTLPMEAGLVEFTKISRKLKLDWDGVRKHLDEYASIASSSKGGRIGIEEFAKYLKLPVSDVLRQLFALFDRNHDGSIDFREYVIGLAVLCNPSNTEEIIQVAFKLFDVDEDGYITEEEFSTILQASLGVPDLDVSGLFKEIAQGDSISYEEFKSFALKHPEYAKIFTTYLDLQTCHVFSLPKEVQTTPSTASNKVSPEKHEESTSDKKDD
The experiment is described as follows: kinetic analysis of lyso-PAFAT activity. The experiment is classed as biochemical. The settings on record: lyso-PAFAT activity of hLPCAT2, competitive with acetyl-CoA; Dixon plot, Prism; mcPAF-stimulated microsomes; read-out: Inhibition constant (apparent Ki value). As for the experimental part:
Microsomal protein fractions (0.5 μg) supplemented with the indicated compound concentrations were added to the reaction mixture containing 100 mM Tris-HCl (pH 7.4), 1 μM CaCl2, 0.015% Tween-20, and two substrates. For acetyltransferase activity, the substrates were 1 mM acetyl-CoA and 5 μM d4-lyso-PAF; for the acyltransferase activity of LPCAT1 or LPCAT2, the substrates were, respectively, palmitoyl-CoA and d31-16:0 LPC or arachidonoyl-CoA and d4-lyso-PAF (all 5 μM). Each lysophospholipid contained fatty acid at the sn-1 position. After incubation at 37°C for 5 min, the reactions were stopped by adding 300 μl methanol containing 17:0 LPC or 14:0/14:0 PC as an internal standard. Deuterium-labeled products were analyzed by LC-MS/MS (Waters, Milford, MA and Thermo Scientific, Waltham, MA).
To investigate the mechanism by which TSI-01 inhibited lyso-PAFAT activity of hLPCAT2, kinetic analysis was performed. CHO-S-PAFR cells overexpressing hLPCAT2 were stimulated with or without mcPAF for 30 s and analyzed for lyso-PAFAT activity in the microsomal fraction. […] Inhibition constant (apparent Ki value) of TSI-01 was also calculated as 30–40 nM using Prism software (Fig. 6D).
Fig. 6. Effects of TSI-01 on kinetics of LPCAT2 enzymatic activity. […]

Turning to `CC(C)OC(=O)c1ccc(N2C(=O)C(Cl)=C(Cl)C2=O)cc1` [TSI-01, propan-2-yl 4-(3,4-dichloro-2,5-dioxopyrrol-1-yl)benzoate], in the experiment on PLA2, the PLA2 activity entry is “not PLA2 activity”. Also, the Ki on hLPCAT2 was 30 to 40 nM.
